“Also recorded” adds a separate entry of the source.
Experiments:
[1] = Plasma level after bolus intraperitoneal injection in wild type adult mice; format: in vivo, mouse
[2] = system: Myo5bΔINT enteroids; experiment: Bulk transcriptional analysis (RNA-seq) in MYO5B deficient mouse enteroids; format: cell-based; conditions: 100 nM
Method: Enteroids were generated from jejunal crypts of adult VilCre^ERT2; Myo5b^flox/flox and VilCre^ERT2; Myo5b^flox/G519R mice (Burman & Momoh CMGH) without tamoxifen treatment and passaged twice with mechanical breakdown. One day after the second passage, 1 μM 4-OH-tamoxifen (SML1666, Sigma) was added into the IntestiCult Organoid Growth Medium (Mouse, Stem Cell Technology) and incubated for 24 hours to induce Cre recombinase. After the incubation with 4-OH-tamoxifen (induced KO or G519R) or the vehicle, 100% ethanol (Control), the medium was replaced with the modified Minigut medium (Mahe et al., 2013) containing 5% Noggin conditioned medium and 5% R-spondin conditioned medium (Vanderbilt Organoid Core) to withdraw Wnt and EGF for enhancing cell differentiation (Kaji JCI Insight). Some iKO enteroids were incubated with 100 nM Compound-1 for 2 days in differentiation conditions.
Following differentiation, enteroids were placed in Organoid Harvesting Solution (3700-100-01; Cultrex) for 1 hr at 4° C. Enteroids were washed with PBS and centrifuged. Enteroid pellets were immersed in TRIzol reagent (15596026; Invitrogen) supplemented with glycogen (G1767; Sigma Aldrich) and stored at −20° C. Total RNA was extracted from enteroids following the manufacturer's instructions. RNA-sequencing with 4 samples per group and differential expressing gene analysis were performed in Novogene.

[3] = molecular target: human LPAR5 (Homo sapiens, UniProt Q9H1C0); conditions: cited from earlier work
human LPAR5, sequence (Q9H1C0 whole entry): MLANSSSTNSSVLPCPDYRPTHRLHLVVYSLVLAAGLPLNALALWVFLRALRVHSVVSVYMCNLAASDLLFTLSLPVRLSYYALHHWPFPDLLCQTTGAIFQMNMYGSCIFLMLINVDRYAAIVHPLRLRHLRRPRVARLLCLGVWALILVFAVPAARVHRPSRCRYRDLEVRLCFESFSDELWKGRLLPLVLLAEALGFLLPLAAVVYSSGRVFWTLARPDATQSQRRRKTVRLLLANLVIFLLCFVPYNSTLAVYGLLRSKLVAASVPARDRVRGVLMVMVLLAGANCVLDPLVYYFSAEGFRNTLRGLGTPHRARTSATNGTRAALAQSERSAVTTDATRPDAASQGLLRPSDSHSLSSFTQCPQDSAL

[4] = Solubility / stability; format: physicochemical; conditions: as a sodium salt
[5] = system: Myo5bΔINT mice; experiment: Daily LPAR agonist treatment of tamoxifen-induced Myo5bΔINT mice (MVID model), intestinal histology and immunostaining; format: in vivo, mouse; conditions: for Hmgcs2 protein expression in jejunal epithelial cells / apical localization of transporters NHE3 and SGLT1: immunostaining; for Hmgcs2 protein expression in jejunal epithelial cells: once daily ip for 4 days; for tuft cell differentiation (tuft cell population) in Myo5bΔINT intestine: once a day for 4 days, LPA 3 mg/kg, Compound-1 1 mg/kg, UCM-05194 10 mg/kg, GRI977143 3 mg/kg; for apical localization of transporters NHE3 and SGLT1: small intestine, daily treatment
Method: All animal studies were performed with approval from the Institutional Animal Care and Use Committee of Vanderbilt University Medical Center (M2000104). At the 8-10 week of age, Myo5bΔINT mice and littermate controls (VilCre^ERT2; Myo5b^+/flox and Myo5b^flox/flox) received a single dose of tamoxifen (100 mg/kg) by intraperitoneal (IP) injection (day 0) (Weis et al.). […] Compound-1 was dissolved in PBS, and UCM-05194 was dissolved in Captisol solution. Body weight changes and diarrhea symptoms were investigated daily. On day 4, mice were euthanized and the duodenum (0-8 cm from the pyloric ring), jejunum (8 cm following the duodenum), ileum (distal 8 cm from the ileocecal junction), and colon were collected for pathological assessment as previously reported (Kaji et al.).
Immunofluorescence staining and imaging were performed as previously reported (Kaji, JCI Insight). Four-μm-thin sections were deparaffinized and rehydrated before performing antigen retrieval using 10 mM sodium citrate buffer, contained 0.05% Tween 20 (pH 6), in a pressure cooker for 15 minutes. After cooling down on ice, slides were rinsed in PBS and blocked with protein block serum-free (Dako) for 1 hour at r/t or overnight at 4° C. The primary antibodies against NHE3 (1:200), SGLT1 (0.5 μg/ml) (Kaji et al., 2020), DCLK1 (AF647-conjugated, 1:2000), KRT19 (1:250), CD3, HMGCS2 (1:50), or Actg1 (1:100) were diluted in Dako diluent in background reducing compound (S3022) and incubated on sections overnight at 4° C. After rinsing in 0.1 M PBS, the slides were incubated with the corresponding secondary antibodies conjugated with fluorescence (Jackson Laboratory) for 1 hour. Slides were rinsed in 0.1 M PBS and counterstained with Hoechst 33342 (4 mM, Thermo Fisher Scientific, Waltham, MA) in PBS. The stained slides were cover-slipped with ProLong Gold Antifade Reagent (P36934, Thermo Fisher). Whole slide images were scanned by a Versa imager 200 with a 20× objective (Leica Biosystems, Buffalo Grove, IL) in the Vanderbilt Digital Histology Shared Resource (DHSR). Some immunofluorescence images were taken by using a Zeiss Axio Imager M2 with ApoTome (Carl Zeiss Microscopy, LLC, White Plains NY).
The DIA code to quantify the tuft cell populations was developed at the DHSR on Python platform as described previously (Kaji 2021).

[6] = system: MYO5B(P663L) pig enteroids; experiment: Tuft cell differentiation in pig MVID model enteroids; format: cell-based; conditions: 100 nM daily in ODM, 5 days, vs vehicle (PBS)
Method: Pig enteroids were expanded in Matrigel (Corning) immersed in IntestiCult Organoid Growth Medium (Human, OGM, Stem Cell Technology). Organoid growth was assessed in 96-well plate and continuously imaged whole wells using a JuLi™ Stage (NanoEn Tek Inc., Waltham, MA). Organoid perimeter was measured by using FIJI, and organoid forming rate was calculated as sphere numbers per plated cell numbers 7 days after the passaging. N=7-9 wells from each genotype. In a different set of culture, tuft cells were differentiated in Organoid Differentiation Medium (ODM, Stem Cell Technology) for 5 days, following after 2 days culture in OGM after passaging. MYO5B(P663L) enteroids were incubated with 100 nM Compound-1 or vehicle (PBS) in ODM.
Organoids were fixed with 10% NBF for 30 min in Matrigel domes, rinsed with cold PBS containing 0.1% FBS and centrifuged to remove Matrigel. Fixed organoids were blocked with 5% normal donkey serum in PBS containing 0.3% Triton X-100 for 2 hours and incubated with the pGirdin (1:100) or POU2F3 (1:200) antibody diluted with the blocking solution for 2 days at 4° C. After rinsing in PBS with Triton X-100, donkey anti-rabbit Cy3 antibody (2.5 μg/ml), Alexa Fluor 488 phalloidin (1:400, A12379, Thermo Fisher), and Hoechst 33342 (2 mM) were applied for 2 hr. […]

[7] = molecular target: T1, human LPAR3 (Homo sapiens, UniProt Q9UBY5); conditions: cited from earlier work
T1 sequence (Q9UBY5 1-353): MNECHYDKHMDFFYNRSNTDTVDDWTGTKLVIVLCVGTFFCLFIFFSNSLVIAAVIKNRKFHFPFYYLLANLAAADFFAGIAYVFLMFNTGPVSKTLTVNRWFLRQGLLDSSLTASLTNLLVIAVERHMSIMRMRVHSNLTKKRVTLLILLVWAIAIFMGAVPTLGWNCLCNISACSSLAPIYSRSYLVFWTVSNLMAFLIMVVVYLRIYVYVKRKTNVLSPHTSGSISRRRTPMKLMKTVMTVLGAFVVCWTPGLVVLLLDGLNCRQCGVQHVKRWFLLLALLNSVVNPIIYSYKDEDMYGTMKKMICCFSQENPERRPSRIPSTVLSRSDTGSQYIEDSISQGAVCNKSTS

[8] = natural LPA; background statement; cited from earlier work

## CCCCCCCCCCCCCCCCOC(CCP([O-])(O)=S)COC.[Na+] (stereo not shown) [Compound-1]
[1]; 1 hour after bolus ip injection 10 mg/kg
  Compound in plasma: detected
[1]; within 6 hours after bolus ip injection 10 mg/kg
  plasma concentration (disappeared): < 10 ng/mL
[2]; 2 days
  Nox1 expression decreased by MYO5B loss: reversed
[2]; 2 days during differentiation
  inflammation- and infection-related genes (Nlrp1b, Ldhb, Hspg2, Trim30) increased by MYO5B loss: significantly reversed
[2]; 2 days, control vs MYO5B deficient enteroids
  Hmgcs2 expression in enteroids with and without Compound-1: comparable
[3]
  EC50: 0.26 nM
[4]
  solubility in water: highly soluble
[5]; Compound-1 1 mg/kg daily, intraperitoneal, 4 days, vs vehicle
  Intestinal villus/crypt ratio: significantly improved
[5]; daily Compound-1 treatment
  increase of villus/crypt ratio in the small intestine: 150%
[5]; high dose 2 mg/mouse per tablet
  effect of subcutaneous tablet insertion (continuous delivery): no consistent effect
[5]
  Hmgcs2 protein expression in jejunal epithelial cells: remarkably upregulated
  tuft cell differentiation (tuft cell population) in Myo5bΔINT intestine: reversed; also recorded: significantly increased
  apical localization of transporters NHE3 and SGLT1: partially recovered; also recorded: partially reversed to normal
[5]; low dose 0.2 mg/mouse per tablet
  effect of subcutaneous tablet insertion (continuous delivery): no consistent effect
[5]; within 4 days, similar to vehicle-treated group
  body weight loss: approximately 14%
[6]
  tuft cell numbers in MYO5B(P663L) enteroids: significantly increased
[7]
  effect on human LPAR3: agonistic effect

## CCCCCCCC/C=C\CCCCCCCC(=O)OCC(O)COP(=O)(O)O (stereo not shown) [LPA, 18:1 1-oleoyl-Lyso PA, reference compound]
[5]; RNA-seq of jejunal epithelial cells, in vivo LPA (18:1)
  fatty acid oxidation or lipogenesis pathways (transcription): did not reverse
[5]; RNA-seq, vs vehicle-treated Myo5bΔINT or healthy littermate mice
  transcription of Hmgcs2 in jejunal epithelial cells: significantly upregulated
[5]
  Hmgcs2 protein expression in jejunal epithelial cells: further increased
  tuft cell differentiation (tuft cell population) in Myo5bΔINT intestine: reversed
  apical localization of transporters NHE3 and SGLT1: similarly improved
[8]
  solubility and stability: poor

## O=C(CCCc1ccccc1)O[C@H](CBr)COP(=O)(O)O [UCM-05194, reference compound]
[5]; once a day for 4 days after tamoxifen
  intestinal histology: did not significantly alter
[5]
  tuft cell differentiation (tuft cell population) in Myo5bΔINT intestine: no significant effect
